“Also recorded” adds a separate entry of the source.
Assays:
TrkB = molecular target: T1, TrkB (Mus musculus, UniProt P15209, F616A); test: TrkB inhibition in NTrk2 tmlDdg/J mutant mice; format: in vivo; conditions: 1NMPP1 25 μM injected in NTrk2 tmlDdg/J mutant mice; preliminary
T1 construct: from tissue; host or cells: NTrk2 tm1Ddg/J knock-in mutant mice (in vivo; intestine)

[1] = tested on: rat enteric glia cell line EGC/PK060399 (ATCC CRL-2690); test: BDNF release from cultured enteric glia cell line (BDNF ELISA); format: cell-based
Description: FIG. 16 is a time response curve showing the BDNF secretion by enteric glial cells stimulated with 10 μM J11. The enteric glial cells (EGC/PK060399egfr, ATCC® CRL-2690™) were treated with 10 μM J11, and the conditional medium were harvested at 2, 6, 24 and 48 hours after treatment. The BDNF secretion was quantified using BDNF ELISA kit following the manufacturer's protocol.
(§1) The inventors next embarked on a strategy to identify novel therapeutic agents for NEC based upon their ability to enhance glial function and thus reduce TLR4 signaling and NEC. To do so, several libraries of FDA approved compounds were screened against the rat enteric glia cell line EGC/PK060399 (ATCC® CRL-2690™) for their ability to induce BDNF release, then the hits were validated by their ability to reduce NEC in mice. The lead hit, shown in FIG. 6A, is a C13H11NO5 compound with MW 261.23Da, herein named “J11”.
A dose-response curve was established for oxolinic acid (J11) in inducing BDNF release in the enteric glia cell line EGC/PK060399, and will be used evaluate a safety profile based upon its mean effective dose in mice. […] The BDNF secretion was quantified using BDNF ELISA kit following the manufacturer's protocol. The amount of BDNF was time dependent with the greatest secretion after 48 hours of exposure.

[2] = tested on: intestine of wild type mice; test: BDNF release in the intestine after oral administration; format: in vivo; conditions: oral administration 20 mg/kg, wild type mice (FIG. 6C)
TLR4 signaling [3] = test: LPS-mediated TLR4 signaling in the intestine of mice; format: in vivo
Description: (§2) FIGS. 5A-5K. BDNF restrains TLR4 signaling in the intestinal epithelium. 5A) enterocytes. 5B) In wild-type mice, BDNF (1 μg/kg) LPS (5 mg/kg) injection for 6 hrs. 5C) qRT-PCR of human ileum freshly harvested from patient with NEC treated with LPS (25 μg/kg) for 6 hr. 5D-H) H&E images. 5I) BDNF ELISA. 5J-K) TNFα and NEC severity. *p<0.05 by ANOVA; 5-10 mice per experiment.
(§3) Fifth, wild-type mice with NEC show reduced levels of BDNF in the intestinal mucosa (FIG. 5H-I), consistent with the reduction in glia.
as §1
(§4) The inventors sought to determine how BDNF inhibits TLR4 and thus attenuates NEC. BDNF is known to signal principally via its receptor, namely tropomyosin-related kinase B (TrkB), which the inventors now show to be present in the intestinal epithelium (FIG. 7). The inventors have now knocked down TrkB in IEC-6 enterocytes (FIG. 7A) using lentiviral delivery of TrkB shRNA.

[4] = tested on: enteric glial cells (EGC/PK060399egfr, ATCC CRL-2690); test: BDNF mRNA expression by enteric glial cells (qPCR); format: cell-based, rat; conditions: 10 μM and 20 μM J11
Description: FIG. 17 depicts a time response curve showing the BDNF mRNA expression by enteric glial cells stimulated with 10 μM and 20 μM J11. The enteric glial cells (EGC/PK060399egfr, ATCC® CRL-2690™) were treated with 10 μM and 20 μM J11, and the enteric glial cells were harvested at 2, 6, 24 and 48 hours after treatment.
The enteric glial cells (EGC/PK060399egfr, ATCC® CRL-2690™) were treated with 10 μM and 20 μM J11, and the enteric glial cells were harvested at 2, 6, 24 and 48 hours after treatment. Total RNA was isolated using the RNeasy mini kit following the manufacturer's protocol. Complementary DNA was synthesized from 0.5 μg RNA using M-MLV reverse transcriptase. The qPCR analysis was performed with the Bio-Rad CFX96 Real-Time System (Biorad, Hercules, Calif.). The relative BDNF mRNA expression was normalized against the expression of housekeeping gene RPLO.

NEC in mice = test: Experimental NEC model in mice; format: in vivo
Description: In the inventors' NEC model, 7d old mice are gavaged with a combination of Similac Advance infant formula (Abbott Nutrition):Esbilac canine milk replacer (PetAb) in a 2:1 ratio at 50 μl/g every 3 hours, and subjected to 10 minutes of hypoxia (5% O2 95% N2 in a Billups-Rothenberg chamber) twice daily for four days, and then orally gavaged dysbiotic bacteria (1×10^5 cfu/ml) obtained from the stool of a patient with severe NEC (see our recent JCI paper for more model details^7). This protocol induces patchy intestinal necrosis and mucosal disruption which mimics human NEC in wild-type mice, but not in either TLR4^ΔIEC or TLR4^−/− littermates.

[5] = tested on: premature human intestine obtained after surgery for NEC; test: Human NEC intestine treated ex vivo with LPS; format: cell-based
Description: as §2, §3, §1

TLR4 signaling [6] = test: LPS-induced cytokine expression in cultured enterocytes or enteroids; format: cell-based, mice; conditions: BDNF 1 μg/ml
From the text: as §3, §4

T1 sequence (P15209 32-821 F616A): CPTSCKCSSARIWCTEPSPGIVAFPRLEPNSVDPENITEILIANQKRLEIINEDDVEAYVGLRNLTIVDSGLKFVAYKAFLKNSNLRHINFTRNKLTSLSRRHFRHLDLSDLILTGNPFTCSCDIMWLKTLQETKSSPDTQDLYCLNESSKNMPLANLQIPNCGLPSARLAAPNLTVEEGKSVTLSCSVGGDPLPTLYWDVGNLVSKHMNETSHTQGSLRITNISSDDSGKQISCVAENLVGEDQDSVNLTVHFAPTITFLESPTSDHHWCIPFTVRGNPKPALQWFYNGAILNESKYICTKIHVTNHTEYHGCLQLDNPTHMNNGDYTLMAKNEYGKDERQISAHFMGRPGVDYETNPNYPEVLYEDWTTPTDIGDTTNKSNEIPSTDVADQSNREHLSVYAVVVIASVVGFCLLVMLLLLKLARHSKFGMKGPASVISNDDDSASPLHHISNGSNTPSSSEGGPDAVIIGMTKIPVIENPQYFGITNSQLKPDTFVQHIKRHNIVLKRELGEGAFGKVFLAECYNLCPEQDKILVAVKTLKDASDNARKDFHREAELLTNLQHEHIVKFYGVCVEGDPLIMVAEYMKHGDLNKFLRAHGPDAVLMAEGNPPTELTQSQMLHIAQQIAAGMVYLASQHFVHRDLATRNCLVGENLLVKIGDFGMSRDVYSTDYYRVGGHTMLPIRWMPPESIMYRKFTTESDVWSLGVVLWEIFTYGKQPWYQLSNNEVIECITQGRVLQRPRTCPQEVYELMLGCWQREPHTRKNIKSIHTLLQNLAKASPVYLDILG

CC(C)(C)n1nc(Cc2cccc3ccccc23)c2c(N)ncnc21 [1NMPP1]
TrkB inhibition (TrkB): preliminarily achieved TrkB inhibition

CCn1cc(C(=O)O)c(=O)c2cc3c(cc21)OCO3 [J11, oxolinic acid]
time of greatest BDNF secretion ([1]; 10 μM J11, conditional medium harvested at 2, 6, 24 and 48 hours, BDNF ELISA (FIG. 16)): 48 h
BDNF release from enteric glia ([1]; cultured enteric glia (FIG. 6B)): induced BDNF release
BDNF release in the intestine [2]: induced BDNF release
LPS-mediated TLR4 signaling in the intestine (TLR4 signaling [3]; LPS 5 mg/kg, wild type mice (FIG. 6D)): inhibited LPS (5 mg/kg)-mediated TLR4 signaling
time of maximal BDNF mRNA expression ([4]; harvested at 2, 6, 24 and 48 hours): 24 h
BDNF mRNA expression ([4]; normalized to RPLO (FIG. 17)): stimulated
NEC severity (NEC in mice; administered orally 20 mg/kg/day to 7d old mice, 20 mg/kg/day): significantly reduced NEC severity; also recorded: prevents NEC in mice
TLR4 signaling / inflammation in human NEC intestine ([5]; J11 10 μM, LPS 25 μg/ml, ex vivo): reduced TLR4 signaling; also recorded: reduces TLR4 signaling in human tissue; also recorded: reduces inflammation in human NEC tissue ex vivo
BDNF release in human NEC intestine ([5]; J11 10 μM, ex vivo): significantly induced BDNF release

B1: BDNF: brain derived neurotrophic factor, enteric glia-derived peptide signalling through TrkB (protein, UniProt P23560 19-247, looked up)
Neurotrophic factor BDNF …: APMKEANIRGQGGLAYPGVRTHGTLESVNGPKAGSRGLTSLADTFEHVIEELLDEDQKVRPNEENNKDADLYTSRVMLSSQVPLEPPLLFLLEEYKNYLDAANMSMRVRRHSDPARRGELSVCDSISEWVTAADKKTAVDMSGGTVTVLEKVPVSKGQLKQYFYETKCNPMGYTKEGCRGIDKRHWNSQCRTTQSYVRALTMDSKKRIGWRFIRIDTSCVCTLTIKRGR
TLR4-induced cytokine expression (TLR4 signaling [6]; LPS 50 μg/ml, cultured enterocytes or enteroids from wild-type mice (FIG. 5A)): reduced TLR4 signaling
LPS induced IL-6 expression after TrkB knockdown (TLR4 signaling [6]; IEC-6 cells with TrkB shRNA, LPS 50 μg/ml (FIG. 7A)): knockdown of TrkB prevented BDNF (1 μg/ml)-mediated protection; also recorded: prevents BDNF protection of LPS TLR4-induced cytokine expression
TLR4-mediated expression of pro-inflammatory cytokines in the intestinal mucosa (TLR4 signaling [3]; BDNF 1 μg/kg injection, wild type mice, 6h after LPS injection (FIG. 5B)): significantly reduced TLR4-mediated expression of the pro-inflammatory cytokines
LPS-mediated TNF induction in mice deficient in TrkB (TLR4 signaling [3]; newborn mice, TrkB shRNA by oral gavage, BDNF 1 μg/kg (FIG. 7B)): no protection of LPS-mediated TNF induction by BDNF
intestinal TNFα in glia KO mouse (TLR4 signaling [3]; qRT-PCR, glia KO mouse (FIG. 3B)): reversed by BDNF
NEC in mice lacking TrkB in the intestinal epithelium (NEC in mice; TrkB-lacking intestinal epithelium, BDNF administration): not protected by BDNF administration
NEC severity in the glial-KO mouse model (NEC in mice; glial-KO mice, BDNF 1 μg/kg (FIGS. 5H-K)): significantly reversed the severe NEC; also recorded: reversed by the administration of BDNF
NEC development (NEC in mice; oral BDNF 1 μg/kg on each day of the model, histology and inflammatory cytokines): significantly protected against NEC development
protection from LPS in ileum from NEC patients ([5]; ileum from NEC patients treated with BDNF (FIG. 5C)): protection was seen
